# Assay results: patent US9637447B2, “Lauflumide and the enantiomers thereof, method for preparing same and therapeutic uses thereof” (priority 2011, dated 2017)
# Like-named read-outs stand apart in the source and are kept apart here.
# Key:
# young Wistar rats [1] = settings: cited from earlier work; for waiting ability in the T-maze test: young rats
# young Wistar rats [2] = assay: T-maze test of waiting ability (ADHD model, impulsivity); type: in vivo, rat; settings: for waiting ability in the T-maze test compared to the control: administered before the test, mazindol 1, 3, 10 mg/kg intraperitoneally, lauflumide 64, 128 mg/kg orally, D-lauflumide 64, 128, 256 mg/kg orally; for improving waiting ability, effectiveness versus methylphenidate and d-amphetamine / improving waiting ability, effectiveness versus modafinil: T-maze; for improving waiting ability, effectiveness versus methylphenidate and d-amphetamine: methylphenidate 3 mg/kg, d-amphetamine 1 mg/kg intraperitoneally; for improving waiting ability, effectiveness versus modafinil: modafinil 64 and 128 mg/kg orally
# Source text: The test of waiting ability in a T-maze consists in offering a rat a choice between a quick and immediate food reward and a large but delayed reward. In adult Wistar rats, numerous antidepressants such as serotonin or noradrenalin reuptake inhibitors increase the number of choices for the large but delayed reward, indicating an improvement in waiting ability, i.e., a decrease in impulsivity.
# The goal of the present study is to examine whether lauflumide in the form of its racemic mixture or its D form ((+) enantiomer), administered in 3 doses before the test, improves waiting ability in young Wistar rats subjected to the T-maze test. An improvement in waiting ability by this compound would indicate that this compound reduces impulsivity and, consequently, could be useful in the treatment of ADHD. Methylphenidate and d-amphetamine are used as a reference product in the same experiment.
# Male Wistar AF rats (Centre d′Elevage Rene Janvier, France) are used, aged 22 days at the beginning of the experiment and between 30 and 42 days at the time the molecules are administered.
# The experiments were carried out in two identical T-mazes (FIG. 1) made of opaque gray plastic tubes (inner diameter: 7.5 cm), consisting of a starting alley (30 cm long), a transparent plastic box, (10 cm wide, 10 cm deep and 10 cm high) and two arms (35 cm long) each leading to a rectangular black plastic box (18 cm wide, 30 cm deep, 10 cm high). The removable, gray plastic guillotine doors can be inserted in vertical slots located at the entrance to the starting alley and at the end of each arm. One of the goal boxes (left or right, depending on the rat) is continuously provided with a large reward, the other with a small reward. The large and small rewards consist of 5 and 1 pellets, respectively (20 mg, Technical & Scientific Equipment GMBH, Germany). The pellets are placed in a translucent cup before each test.
# The T-maze test is a validated test which makes it possible, by extrapolation to man, to verify the effectiveness of pharmacological agents effective in ADHD.
# 1st phase: habituation. The animals are first subjected to 2 to 6 habituation sessions of 5 minutes each. The rat is gently placed in the starting alley, which is then closed off by a guillotine door inserted in the slot (reference c0 in FIG. 1). The animal is allowed to freely explore the device and to eat the rewards placed in the cups.
# 2nd phase: pre-training. A door is placed in slot c2 near each goal box and then the rat is placed in the starting alley. When it enters one of the two arms, a door is inserted behind it in slot c1 near the choice point and the door placed in slot c2 is removed. Once the animal enters the goal box, the door is replaced in slot c2. The rat is removed from the goal box as soon as it eats the pellets. The animal is then returned to its cage for 2 to 3 minutes. One to three times per day, each rat is subjected to five test sessions. In four to 12 sessions, the rat chooses the arm leading to the large reward in more than 80% of the tests. The training phase then begins.
# 3rd phase: training. During training the rats 1 to 4 times/day undergo sessions of 5 tests during which a delay is introduced before access to the large reward is granted. After a door is placed in slot c2 near each goal box, the rat is placed in the starting alley. When it enters one of the two arms, a second door is inserted behind it in slot c1 near the choice point, so that the rat choosing the training arm with the large reward can be held in this arm for 30 seconds—the waiting period—before having access to the reinforcement. If not, if the animal chooses the arm leading to the small reward, the door placed in slot c2 is immediately removed, allowing the animal to enter the goal box. The testing of the drugs begins when the animal chooses the large reward delayed by 30 seconds in 2 tests in 5 (or fewer) during two consecutive sessions and in 1 test in 5 (or fewer) in the following session. […]
# [3] = Comparative effectiveness stated in the description (no method given)
smiles,measurement,setting,value
CNCCCN1c2ccccc2CCc2ccccc21 [desipramine],waiting ability in the T-maze test,young Wistar rats [1],improved waiting ability
NC(=O)C[S+]([O-])C(c1ccc(F)cc1)c1ccc(F)cc1 (racemic) [Lauflumide],waiting ability in the T-maze test compared to the control,young Wistar rats [2],improve waiting ability
same,effectiveness relative to adrafinil,[3],20 times
same,effectiveness relative to modafinil,[3],4 times
NC(=O)C[S@@+]([O-])C(c1ccc(F)cc1)c1ccc(F)cc1 [D-Lauflumide],"improving waiting ability, effectiveness versus methylphenidate and d-amphetamine",young Wistar rats [2],at least as effective as methylphenidate and d-amphetamine
same,"improving waiting ability, effectiveness versus modafinil",young Wistar rats [2],more effective than modafinil
same,waiting ability in the T-maze test compared to the control,young Wistar rats [2],improve waiting ability
same,effectiveness versus the racemic mixture of lauflumide,[3],more effective than the racemic mixture of lauflumide
"OC1(c2ccc(Cl)cc2)c2ccccc2C2=NCCN21 (centres unmarked) [Mazindol, mazindol]","improving waiting ability, effectiveness versus methylphenidate and d-amphetamine",young Wistar rats [2],at least as effective as methylphenidate and d-amphetamine
same,"improving waiting ability, effectiveness versus modafinil",young Wistar rats [2],more effective than modafinil
same,waiting ability in the T-maze test compared to the control,young Wistar rats [2],improve waiting ability
"CC(N)Cc1ccccc1 (racemic) [amphetamine, D,L-amphetamine]",waiting ability in the T-maze test,young Wistar rats [1],improved waiting ability
Clc1cccc(Cl)c1N=C1NCCN1 [clonidine],waiting ability in the T-maze test,young Wistar rats [1],improved waiting ability
COC(=O)C(c1ccccc1)C1CCCCN1 (centres unmarked) [methylphenidate],number of choices for the large but delayed reward,"young Wistar rats [1]; adult Wistar rats, spontaneously hypertensive rats (SHR) and Wistar Kyoto (WKY) rats",not
same,number of choices for the large but delayed reward,young Wistar rats [1]; young Wistar rats,increases the number of choices for the large but delayed reward
same,waiting ability in the T-maze test,young Wistar rats [1],improved waiting ability
CNCC[C@@H](Oc1ccccc1C)c1ccccc1 [atomoxetine],waiting ability in the T-maze test,young Wistar rats [1],improved waiting ability
